{"source": "paper PMC11258615", "about": "(RSC Advances, 2024)", "molecular_target": "mushroom tyrosinase (Agaricus bisporus, UniProt C7FF04)", "sequence (C7FF04 1-392)": "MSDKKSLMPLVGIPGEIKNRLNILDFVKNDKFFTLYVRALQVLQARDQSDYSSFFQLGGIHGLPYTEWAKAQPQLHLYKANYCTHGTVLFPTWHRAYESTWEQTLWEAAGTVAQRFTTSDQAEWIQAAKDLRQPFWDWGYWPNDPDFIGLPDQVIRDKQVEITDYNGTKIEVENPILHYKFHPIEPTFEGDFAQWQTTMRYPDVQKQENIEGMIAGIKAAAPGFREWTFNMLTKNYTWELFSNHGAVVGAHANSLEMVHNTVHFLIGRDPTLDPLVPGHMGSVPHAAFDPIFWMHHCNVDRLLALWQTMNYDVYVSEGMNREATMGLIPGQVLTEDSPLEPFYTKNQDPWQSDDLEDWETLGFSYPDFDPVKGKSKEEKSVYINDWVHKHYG", "test": "Kinetic analysis of tyrosinase inhibition", "details": "L-DOPA 0.5 to 3 mM", "note": "Entries after “also recorded” stand apart in the source; their conditions may differ."}
{"smiles": "Nc1ccc(-c2cc(-c3ccc(-c4cc(-c5ccc(N)cc5)nc(N)n4)cc3)nc(N)n2)cc1", "note": "[Compound 6P, 6,6′-(1,4-phenylene)bis[4-(4-aminophenyl)pyrimidin-2-amine]]", "values": [{"measurement": "Type of tyrosinase inhibition (Lineweaver-Burk plots)", "result": "mixed-type inhibitor; also recorded: mixed-type inhibition"}]}
